The results in this text go back to patent publication US8377967B2, “Piperidine derivative” (Nippon Zoki Pharmaceutical Co., Ltd., priority 2008, dated 2013).

Each structure is given as a SMILES string. A value given as a limit tells only on which side of the number the result lay.

For assay [1], the system named is histamine-induced vascular hyperpermeability reaction. As to the kind of experiment: Rat histamine-induced vascular hyperpermeability reaction (in vivo antihistamine action). The settings on record: SD male rat, oral administration 1 hour before intracutaneous histamine, leaked Evans Blue pigment. As for the experimental part:
An SD male rat (SPF) of 180 g in weight was previously fed for one week or more by allowing the rat to take a solid feed and tap water ad libitum, under the environment setting of a temperature of 22° C., humidity of 55% and an artificial illumination of 12 hours a day (light phase 8 am to 8 pm), and the rat was fasted overnight to be used for the experiment. Histamine•dihydrochloride (hereinafter referred to as histamine) and Evans Blue were used by dissolving each in physiological saline upon use. A substance to be tested was dissolved in water for injection or suspended in 0.5% carboxymethyl cellulose sodium, and the rat was orally administered with the solution or suspension (dose volume: 5 mL/kg body weight). After 1 hour from the administration, the physiological saline and the histamine solution were each intracutaneously injected to two locations (20 μg/0.05 ml/location) each on a back part of the rat of which hair was sheared with an electric clipper while anesthetizing with an ether. A 0.5% Evans Blue-containing physiological saline was injected intravenously to the tail of the rat (1 mL/200 g body weight) immediately before the intracutaneous injection of the histamine.
After 30 minutes, the animal was decapitated, and allowed to bleed lethally, and the skin was removed to measure an amount of leaked pigment in the blue-stained portion. The measurement of the amount of leaked pigment was carried out as follows. Skins of the pigment leaking site were cut out at two locations, 1 mL of a 2 mol/L aqueous potassium hydroxide solution was added thereto in a test tube, and the test tube was allowed to stand overnight at 37° C. to dissolve. Thereafter, 6 mL of a 1:3 mixed solution of 0.67 mol/L phosphoric acid and acetone was added to the solution, and the mixture was vigorously shaken for 10 minutes. Thereafter, the mixture was filtered, and the absorbance of the filtrate at 620 nm was measured. The absorbance obtained from the two locations of the sites injected with physiological saline, as blank value, was used for a compensation. The amount of leaked pigment was calculated from the calibration curve of Evans Blue at 620 nm.

Assay [2] deals with T1, cerebral H1 receptor (Mus musculus, UniProt P70174).
T1 construct: the entire brain, except for cerebellum and medulla oblongatae, was rapidly excised; from tissue; host or cells: brain homogenate (without cerebellum and medulla oblongata) of orally dosed ICR male mice
As to the kind of experiment: Murine cerebral H1 receptor occupying content (ex vivo). Type of assay: in vivo. The settings on record: for ED50: ICR male mouse, oral administration, brain excised after 1 hour, 3H-pyrilamine binding in brain homogenate, larger = lower brain transfer, read-out: ID50 (the source's name); for ID50 (mg/kg)/ ED50 (mg/kg): ID50 of cerebral receptor binding test (Table 20) divided by ED50 of vascular hyperpermeability test (Table 19). The method, then: A 6-week-old ICR male mouse was previously fed for one week or more by allowing the mouse to take a solid feed and tap water ad libitum, under the environment setting of a temperature of 22° C., humidity of 55% and an artificial illumination of 12 hours a day, and the mouse was fasted overnight to be used for the experiment. A substance to be tested was dissolved with water for injection or suspended in 0.5% carboxymethyl cellulose solution, and the solution or suspension was orally administered to the mouse (dose volume: 0.1 mL/10 g body weight). After 1 hour from the oral administration, the mouse was decapitated, and the entire brain, except for cerebellum and medulla oblongatae, was rapidly excised. The excised brain tissue was homogenized with Polytron (manufactured by Kinematica) in an ice-cooled 50 mmol/L phosphate buffered saline (pH 7.4, 100 mg/1.9 mL).
To a test tube for reaction (TPX-Tube) were added 180 μL of the brain homogenate, and 10 μL of ^3H-pyrilamine solution (final concentration: 2 nmol/L) and 10 μL of a non-labeled pyrilamine solution (final concentration: 200 μmol/L) or a 50 mmol/L phosphate buffered saline, and the mixture was incubated at room temperature for 45 minutes, and 2.0 mL of an ice-cooled, 50 mmol/L phosphate buffered saline was then added thereto to stop the reaction. The reaction mixture was filtered with a GF/B filter (manufactured by […]), and the […] was placed in a vial and dried overnight at 60 degrees. After drying, 10 mL of a scintillator (AL-1, toluene-based, manufactured by DOJINDO LABORATORIES) was added to the product, and the disintegration per minute (dpm) was measured with a liquid scintillation counter (manufactured by Packard, U.S.A., TRI-CARB 2700TR) (5 minutes/vial).

T1 sequence (P70174 whole entry): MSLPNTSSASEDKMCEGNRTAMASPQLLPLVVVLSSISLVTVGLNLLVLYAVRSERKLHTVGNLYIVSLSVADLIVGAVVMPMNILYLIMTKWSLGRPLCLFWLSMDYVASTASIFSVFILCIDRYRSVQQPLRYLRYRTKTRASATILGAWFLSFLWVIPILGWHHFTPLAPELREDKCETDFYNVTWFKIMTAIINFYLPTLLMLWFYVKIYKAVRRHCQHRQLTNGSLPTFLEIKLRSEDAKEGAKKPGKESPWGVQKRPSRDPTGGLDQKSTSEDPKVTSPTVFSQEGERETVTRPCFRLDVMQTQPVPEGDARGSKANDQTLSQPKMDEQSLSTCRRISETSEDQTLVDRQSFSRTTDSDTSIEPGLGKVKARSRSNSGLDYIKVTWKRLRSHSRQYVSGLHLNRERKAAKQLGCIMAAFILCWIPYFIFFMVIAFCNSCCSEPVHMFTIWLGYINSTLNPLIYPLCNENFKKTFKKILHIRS

On to `CN1CCC(=C2c3ccccc3CCc3sc(C(=O)O)cc32)CC1.Cl` [Compound 4, [4-(1-Methylpiperidin-4-ylidene)-9,10-dihydro-4H-1-thiabenzo[f]azulen-2-yl]carboxylic acid hydrochloride], for which the results for the ED50 in assay [1] and in assay [2] were 0.69 mg/kg and 43.1 mg/kg, respectively. For the same molecule, the “ID50 (mg/kg)/ ED50 (mg/kg)” value in assay [2] came out at 62.5.

The molecule `CN1CCC(=C2c3cc(C(=O)O)ccc3OCc3ccsc32)CC1` [Compound 26, [4-(1-Methylpiperidin-4-ylidene)-4,10-dihydro-9-oxa-3-thiabenzo[f]azulen-6-yl]carboxylic acid] yielded an ED50 in assay [1] of 0.059 mg/kg. Moreover, in assay [2], the ED50 came out at 4.8 mg/kg and the “ID50 (mg/kg)/ ED50 (mg/kg)” value is recorded as 81.4.

In turn, `CN1CCC(=C2c3cc(C=CC(=O)O)ccc3OCc3ccsc32)CC1` [Compound 35, 3-[4-(1-Methylpiperidin-4-ylidene)-4,10-dihydro-9-oxa-3-thiabenzo[f]azulen-6-yl]acrylic acid] displayed an ED50 in assay [1] of 0.28 mg/kg. Besides, in assay [2], the ED50 was found to be 28.4 mg/kg and the “ID50 (mg/kg)/ ED50 (mg/kg)” value came to 101.4.

The molecule `CN1CCC(=C2c3ccccc3CC(=O)c3sc(C=CC(=O)O)cc32)CC1` [Compound 48, 3-[4-(1-Methylpiperidin-4-ylidene)-10-oxo-9,10-dihydro-4H-1-thiabenzo[f]azulen-2-yl]acrylic acid] displayed an ED50 in assay [1] of 0.68 mg/kg. Also, in assay [2], the ED50 worked out at 95.5 mg/kg and the “ID50 (mg/kg)/ ED50 (mg/kg)” value is 140.4.

For the molecule `CN1CCC(=C2c3cc(CC(=O)O)ccc3OCc3ccsc32)CC1.Cl` [Compound 54, [4-(1-Methylpiperidin-4-ylidene)-4,10-dihydro-9-oxa-3-thiabenzo[f]azulen-6-yl]acetic acid hydrochloride], in assay [1], the ED50 was found to be 0.027 mg/kg. Moreover, in assay [2], the ED50 stood at 9.3 mg/kg and the “ID50 (mg/kg)/ ED50 (mg/kg)” value is reported as 344.4.

Molecule `CN1CCC(=C2c3ccccc3CCc3sc(C(C)(C)C(=O)O)cc32)CC1` [Compound 65, 2-Methyl-2-[4-(1-methylpiperidin-4-ylidene)-9,10-dihydro-4H-1-thiabenzo[f]azulen-2-yl]propionic acid] gave an ED50 in assay [1] of 0.14 mg/kg. For the same molecule, in assay [2], the ED50 was 19.5 mg/kg and the “ID50 (mg/kg)/ ED50 (mg/kg)” value is given as 139.3.

Turning to `CN1CCC(=C2c3cc(C(C)(C)C(=O)O)ccc3OCc3ccsc32)CC1` [Compound 68, 2-Methyl-2-[4-(1-Methylpiperidin-4-ylidene)-4,10-dihydro-9-oxa-3-thiabenzo[f]azulen-6-yl]propionic acid], the ED50 in assay [1] worked out at 0.13 mg/kg. For the same molecule, in assay [2], the ED50 is 14.6 mg/kg and the “ID50 (mg/kg)/ ED50 (mg/kg)” value is 112.3.

Consider `CCN1CCC(=C2c3ccccc3CCc3sc(C(=O)O)cc32)CC1.Cl` [Compound 108, [4-(1-Ethylpiperidin-4-ylidene)-9,10-dihydro-4H-1-thiabenzo[f]azulen-2-yl]carboxylic acid hydrochloride], for which the ED50 in assay [1] stood at 1.16 mg/kg. In addition, in assay [2], the ED50 is 110 mg/kg and the “ID50 (mg/kg)/ ED50 (mg/kg)” value was found to be 95.3.

In assay [1], `CCOC(=O)Cc1ccc2c(c1)C(=C1CCNCC1)c1sccc1CO2.Cl` [Compound 113, Ethyl (4-piperidin-4-ylidene-4,10-dihydro-9-oxa-3-thiabenzo[f]azulen-6-yl)acetate hydrochloride] returned an ED50 of 0.072 mg/kg. In assay [2], the ED50 was 98.7 mg/kg and the “ID50 (mg/kg)/ ED50 (mg/kg)” value was determined as 1370.8.

Turning to `CN1CCC(=C2c3cc(CC(=O)O)ccc3OCc3sccc32)CC1` [Compound 117, [4-(1-Methylpiperidin-4-ylidene)-4,10-dihydro-9-oxa-1-thiabenzo[f]azulen-6-yl]acetic acid], the ED50 in assay [1] stood at 0.027 mg/kg. Besides, in assay [2], the ED50 is 4.2 mg/kg and the “ID50 (mg/kg)/ ED50 (mg/kg)” value is 155.6.

In the case of `O=C(O)Cc1ccc2c(c1)C(=C1CCN(CCO)CC1)c1sccc1CO2` [Compound 119, {4-[1-(2-Hydroxyethyl)piperidin-4-ylidene]-4,10-dihydro-9-oxa-3-thiabenzo[f]azulen-6-yl}acetic acid], the ED50 in assay [1] came out at 1.1 mg/kg. Also, in assay [2], the ED50 is 74.5 mg/kg and the “ID50 (mg/kg)/ ED50 (mg/kg)” value stood at 67.7.

Regarding `COC(=O)Cc1ccc2c(c1)C(=C1CCNCC1)c1sccc1CO2.Cl` [Compound 126, Methyl (4-piperidin-4-ylidene-4,10-dihydro-9-oxa-3-thiabenzo[f]azulen-6-yl)acetate hydrochloride], the ED50 in assay [1] is 0.446 mg/kg. For the same molecule, in assay [2], the ED50 is 237 mg/kg and the “ID50 (mg/kg)/ ED50 (mg/kg)” value worked out at 530.7.

`CCN1CCC(=C2c3cc(CC(=O)O)ccc3OCc3ccsc32)CC1` [Compound 128, [4-(1-Ethylpiperidin-4-ylidene)-4,10-dihydro-9-oxa-3-thiabenzo[f]azulen-6-yl]acetic acid]: in assay [1], the ED50 is roughly 0.1 mg/kg. For the same molecule, in assay [2], the ED50 turned out to be 7.45 mg/kg and the “ID50 (mg/kg)/ ED50 (mg/kg)” value is listed as 74.5.

The molecule `CC(C)N1CCC(=C2c3cc(CC(=O)O)ccc3OCc3ccsc32)CC1` [Compound 132, [4-(1-Isopropylpiperidin-4-ylidene)-4,10-dihydro-9-oxa-3-thiabenzo[f]azulen-6-yl]acetic acid] registered an ED50 in assay [1] of 0.17 mg/kg. Besides, in assay [2], the ED50 amounted to 37.5 mg/kg and the “ID50 (mg/kg)/ ED50 (mg/kg)” value worked out at 220.6.

For `COC(=O)CCCc1ccc2c(c1)C(=C1CCNCC1)c1sccc1CO2.Cl` [Compound 135, Methyl 4-(4-piperidin-4-ylidene-4,10-dihydro-9-oxa-3-thiabenzo[f]azulen-6-yl)butyrate hydrochloride], in assay [1], the ED50 stood at 2.33 mg/kg. In addition, in assay [2], the ED50 was greater than 200 mg/kg and the “ID50 (mg/kg)/ ED50 (mg/kg)” value is given as greater than 85.8.

For the molecule `CCCOC(=O)Cc1ccc2c(c1)C(=C1CCNCC1)c1sccc1CO2.Cl` [Compound 137, Propyl (4-piperidin-4-ylidene-4,10-dihydro-9-oxa-3-thiabenzo[f]azulen-6-yl)acetate hydrochloride], the ED50 in assay [1] came out at 0.24 mg/kg. Moreover, in assay [2], the ED50 was greater than 200 mg/kg and the “ID50 (mg/kg)/ ED50 (mg/kg)” value is reported as greater than 833.3.

Consider `O=C(O)Cc1ccc2c(c1)C(=C1CCN(CCCO)CC1)c1sccc1CO2` [Compound 139, {4-[1-(3-Hydroxypropyl)piperidin-4-ylidene]-4,10-dihydro-9-oxa-3-thiabenzo[f]azulen-6-yl}acetic acid], for which the ED50 in assay [1] was 2.24 mg/kg; in assay [2] it was greater than 200 mg/kg. The “ID50 (mg/kg)/ ED50 (mg/kg)” value in assay [2] is on record as greater than 89.3.

With `CCOC(=O)C(C)(C)c1cc2c(s1)CCc1ccccc1C2=C1CCNCC1.Cl` [Compound 152, Ethyl 2-methyl-2-(4-piperidin-4-ylidene-9,10-dihydro-4H-1-thiabenzo[f]azulen-2-yl)propionate hydrochloride], the ED50 in assay [1] was 1.49 mg/kg; in assay [2], 199 mg/kg. The “ID50 (mg/kg)/ ED50 (mg/kg)” value in assay [2] came out at 133.8.

As for `CC(C)(C(=O)O)c1cc2c(s1)CCc1ccccc1C2=C1CCNCC1.Cl` [Compound 153, 2-Methyl-2-(4-piperidin-4-ylidene-9,10-dihydro-4H-1-thiabenzo[f]azulen-2-yl)propionic acid hydrochloride], in assay [1], the ED50 is 2.61 mg/kg. Also, in assay [2], the ED50 was greater than 200 mg/kg and the “ID50 (mg/kg)/ ED50 (mg/kg)” value is recorded as greater than 76.6.

Regarding `CCN1CCC(=C2c3ccccc3CCc3sc(C(C)(C)C(=O)O)cc32)CC1` [Compound 155, 2-[4-(1-Ethylpiperidin-4-ylidene)-9,10-dihydro-4H-1-thiabenzo[f]azulen-2-yl]-2-methylpropionic acid], the ED50 in assay [1] was found to be 0.334 mg/kg. In addition, in assay [2], the ED50 worked out at 66.6 mg/kg and the “ID50 (mg/kg)/ ED50 (mg/kg)” value turned out to be 199.4.

Take `CN1CCC(=C2c3ccccc3CC(=O)c3sccc32)CC1` [Ketotifen, reference compound]: the ED50 in assay [1] was determined as 0.54 mg/kg.
